The record followed here is paper PMC6536313 (Bioorganic & medicinal chemistry, 2019).

One assay has as its target σ2 receptor (σ2R) (Homo sapiens, UniProt Q5BJF2). Nature of the assay: Sigma-2 receptor radioligand binding. As to conditions: for σ2R pKi ± SEM: Mean ± SEM.
Another assay has as its target σ1 receptor (σ1R) (Homo sapiens, UniProt Q99720). Nature of the assay: Sigma-1 receptor radioligand binding.
Setting [1] is: on removal of both chloro and fluoro substituents (ether analogs 13-15).

Where only a bound is given, the exact number is not on record here.

σ2 receptor (σ2R), sequence (Q5BJF2 whole entry, species assumed): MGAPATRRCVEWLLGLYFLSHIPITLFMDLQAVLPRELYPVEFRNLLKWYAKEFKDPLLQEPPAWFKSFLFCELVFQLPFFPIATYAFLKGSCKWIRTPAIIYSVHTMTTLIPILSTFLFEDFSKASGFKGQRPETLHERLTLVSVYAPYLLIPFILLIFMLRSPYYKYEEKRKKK
σ1 receptor (σ1R), sequence (Q99720 whole entry, species assumed): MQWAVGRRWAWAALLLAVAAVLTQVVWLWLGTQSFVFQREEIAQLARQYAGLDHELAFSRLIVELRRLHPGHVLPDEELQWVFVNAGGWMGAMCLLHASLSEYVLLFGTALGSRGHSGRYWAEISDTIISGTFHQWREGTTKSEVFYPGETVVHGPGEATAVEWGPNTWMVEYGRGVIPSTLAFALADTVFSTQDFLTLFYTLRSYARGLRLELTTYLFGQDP

In the case of `O=C(CCCN1CCCN(c2ccccn2)CC1)c1ccc(F)cc1` [Compound 3, 1-(4-fluorophenyl)-4-(4-(pyridin-2-yl)-1,4-diazepan-1-yl)butan-1-one], at σ2 receptor (σ2R), the “σ2R pKi ± SEM” value is reported as 7.49 ± 0.09.
Still for that read-out and setting: the result for `Fc1ccc(CCCCN2CCCN(c3ccc(Cl)cc3)CC2)cc1` [Compound 5] reads 8.07 ± 0.06; that for `Fc1ccc(SCCCN2CCCN(c3ccc(Cl)cn3)CC2)cc1` [Compound 7, 1-(5-chloropyridin-2-yl)-4-(3-((4-fluorophenyl)thio)propyl)-1,4-diazepane], 8.65 ± 0.05.
The same measure, in the same setting: the result for `Fc1ccc(CCCCN2CCN(c3ccc(Cl)cn3)CC2)cc1` [Compound 10, 1-(5-chloropyridin-2-yl)-4-(4-(4-fluorophenyl)butyl)piperazine] reads 7.37 ± 0.05.
Take `[O-][S+](CCCN1CCN(c2ccc(Cl)cc2)CC1)c1ccc(F)cc1` (centres unmarked) [Compound 12]: at σ1 receptor (σ1R) (relative to compound 8), the “fold reduction/loss of binding affinity at σ1 receptor” value is on record as “greater than 45 fold”. For the same molecule, the “fold reduction/loss of binding affinity at σ2 receptor” value on σ2 receptor (σ2R) (relative to compound 8) is reported as greater than 71 fold.
Take `Clc1ccc(N2CCN(CCCOc3ccccc3)CC2)cc1` [Compound 13]: the “σ2R pKi ± SEM” value at σ2 receptor (σ2R) is 7.48 ± 0.09.
As to `c1ccc(OCCCN2CCN(c3ccccc3)CC2)cc1` [Compound 15], the “fold decrease in binding affinity at σ1 receptor” value at σ1 receptor (σ1R) (setting [1]) is 2–5 fold. Further, the “fold decrease in binding affinity at σ2 receptor” value on σ2 receptor (σ2R) (setting [1]) was 2–5 fold.
Consider `OC1(c2ccc(Cl)cc2)CC2CCC(C1)N2CCCCc1ccc(F)cc1` (centres unmarked) [Compound 17], for which the “fold lower affinity for σ1 receptor” value on σ1 receptor (σ1R) (relative to compound 5) came out at 6 fold. At σ2 receptor (σ2R) (relative to compound 5), the “fold lower affinity for σ2 receptor” value was 3 fold.
